Here are results for 22 molecules from US20200181104A1, “SSAO INHIBITORS AND USES THEREOF” (METACRINE, INC., priority 2018, published 2020).

Structures are written as SMILES. Some results are limits rather than exact numbers.

For this experiment, the target named is T1, Recombinant Human SSAO/VAP-1/AOC3 (Homo sapiens, UniProt Q16853).
T1 construct: purchased R&D systems 3957-AO
T1 sequence (Q16853 1-763): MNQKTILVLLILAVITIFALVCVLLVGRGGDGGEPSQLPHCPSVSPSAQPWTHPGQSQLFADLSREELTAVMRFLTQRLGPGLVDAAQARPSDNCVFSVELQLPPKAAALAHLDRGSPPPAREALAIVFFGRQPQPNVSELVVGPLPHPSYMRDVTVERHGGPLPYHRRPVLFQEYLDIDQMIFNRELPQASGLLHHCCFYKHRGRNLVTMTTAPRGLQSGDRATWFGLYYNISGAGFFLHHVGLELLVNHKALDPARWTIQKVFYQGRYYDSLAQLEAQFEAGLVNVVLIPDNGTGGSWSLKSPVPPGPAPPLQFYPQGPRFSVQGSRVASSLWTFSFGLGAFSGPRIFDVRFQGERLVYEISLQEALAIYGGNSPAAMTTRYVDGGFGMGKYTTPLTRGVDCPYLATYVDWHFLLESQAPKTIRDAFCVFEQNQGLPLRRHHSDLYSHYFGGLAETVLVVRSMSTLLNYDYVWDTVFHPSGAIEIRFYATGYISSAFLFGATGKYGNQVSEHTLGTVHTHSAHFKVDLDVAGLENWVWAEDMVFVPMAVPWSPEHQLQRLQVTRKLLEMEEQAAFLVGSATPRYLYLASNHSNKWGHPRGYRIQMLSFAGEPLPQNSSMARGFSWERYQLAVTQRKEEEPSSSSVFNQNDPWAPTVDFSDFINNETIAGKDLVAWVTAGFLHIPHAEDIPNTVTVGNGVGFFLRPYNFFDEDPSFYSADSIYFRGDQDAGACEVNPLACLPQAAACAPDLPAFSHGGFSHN
Kind of experiment: Human Semicarbazide-Sensitive Amine Oxidase (SSAO) Assay. The conditions noted are these: recombinant enzyme, 30 minutes preincubation at 37° C., benzylamine substrate, Amplex Ultra Red/HRP fluorescence. The class given is biochemical. In outline: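 IC50 from kinetic Amplex Ultra Red/HRP fluorescence (ex 544, em 590 nm, 30-120 min) after benzylamine addition. Beforehand, 6-10 compound dilutions were preincubated 30 min at 37 °C with recombinant human SSAO in 50 mM HEPES (enzyme working concentration 2.5 μg/ml).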

What is called IC50 is the concentration that gives 50% inhibition. Take `NC/C(=C\F)COc1ccc(C23CCC(C(=O)NCCC(=O)O)(CC2)CC3)cc1` [Compound 2.08, (E)-3-(4-(4-((2-(aminomethyl)-3-fluoroallyl)oxy)phenyl)bicyclo[2.2.2]octane-1-carboxamido)propanoic acid]: the IC50 is not above 0.01 µM. On to `NC/C(=C\F)COc1ccc(C23CCC(C(=O)NC4CCC(F)(F)CC4)(CC2)CC3)cc1` [Compound 2.46, (E)-4-(4-((2-(aminomethyl)-3-fluoroallyl)oxy)phenyl)-N-(4,4-difluorocyclohexyl)bicyclo [2.2.2]octane-1-carboxamide], for which the IC50 was not above 0.01 µM. On to `COc1cnc(CNC(=O)C23CCC(c4ccc(OC/C(=C/F)CN)cc4)(CC2)CC3)cn1` [Compound 2.160, (E)-4-(4-((2-(aminomethyl)-3-fluoroallyl)oxy)phenyl)-N-((5-methoxypyrazin-2-yl)methyl)bicyclo[2.2.2]octane-1-carboxamide], for which the IC50 was not above 0.01 µM.

Regarding `CC1(NC(=O)C23CCC(c4ccc(OC/C(=C/F)CN)cc4)(CC2)CC3)CCOC1` (stereo not shown) [Compound 2.87, (E)-4-(4-((2-(aminomethyl)-3-fluoroallyl)oxy)phenyl)-N-(3-methyltetrahydrofuran-3-yl)bicyclo[2.2.2]octane-1-carboxamide], the IC50 was not above 0.01 µM. Take `CC1(CNC(=O)C23CCC(c4ccc(OC/C(=C/F)CN)cc4)(CC2)CC3)CCOCC1` [Compound 2.36, (E)-4-(4-((2-(aminomethyl)-3-fluoroallyl)oxy)phenyl)-N-((4-methyltetrahydro-2H-pyran-4-yl)methyl)bicyclo[2.2.2]octane-1-carboxamide]: the IC50 was not above 0.01 µM. Next, `COc1cccc(CCNC(=O)C23CCC(c4ccc(OC/C(=C/F)CN)cc4)(CC2)CC3)c1` [Compound 2.119, (E)-4-(4-((2-(aminomethyl)-3-fluoroallyl)oxy)phenyl)-N-(3-methoxyphenethyl)bicyclo [2.2.2]octane-1-carboxamide]: not above 0.01 µM; `N#CC1CN(C(=O)C23CCC(c4ccc(OC/C(=C/F)CN)cc4)(CC2)CC3)C1` [Compound 2.57, (E)-1-(4-(4-((2-(aminomethyl)-3-fluoroallyl)oxy)phenyl)bicyclo[2.2.2]octane-1-carbonyl)azetidine-3-carbonitrile]: not above 0.01 µM. For `CC(NC(=O)C12CCC(c3ccc(OC/C(=C/F)CN)cc3)(CC1)CC2)C1CCOCC1` (stereo not shown) [Compound 2.19, (E)-4-(4-((2-(amino-methyl)-3-fluoroallyl)oxy)phenyl)-N-(1-(tetrahydro-2H-pyran-4-yl)ethyl)bicyclo[2.2.2] octane-1-carboxamide], the IC50 is not above 0.01 µM. Regarding `CC1(C)CC(NC(=O)C23CCC(c4ccc(OC/C(=C/F)CN)cc4)(CC2)CC3)CCO1` (stereo not shown) [Compound 2.42, (E)-4-(4-((2-(aminomethyl)-3-fluoroallyl)oxy)phenyl)-N-(2,2-dimethyltetrahydro-2H-pyran-4-yl)bicyclo[2.2.2]octane-1-carboxamide], the IC50 was not above 0.01 µM. For `NC/C(=C\F)COc1ccc(C23CCC(NS(=O)(=O)C4CC4)(CC2)CC3)cc1` [Compound 7.03, (E)-N-(4-(4-((2-(aminomethyl)-3-fluoroallyl)oxy)phenyl)bicyclo[2.2.2]octan-1-yl)cyclopropanesulfonamide], the IC50 was not above 0.01 µM. Under `COc1ccc(CNC(=O)C23CCC(c4ccc(OC/C(=C/F)CN)cc4)(CC2)CC3)cc1` [Compound 2.118, (E)-4-(4-((2-(aminomethyl)-3-fluoroallyl)oxy)phenyl)-N-(4-methoxybenzyl)bicyclo[2.2.2] octane-1-carboxamide] stands not above 0.01 µM; under `NC/C(=C\F)COc1ccc(C23CCC(OCC(=O)NC4CCOCC4)(CC2)CC3)cc1` [Compound 8.01, (E)-2-((4-(4-((2-(aminomethyl)-3-fluoroallyl)oxy)phenyl)bicyclo [2.2.2]octan-1-yl)oxy)-N-(tetrahydro-2H-pyran-4-yl)acetamide], not above 0.01 µM; under `CC1(C)CCC(NC(=O)C23CCC(c4ccc(OC/C(=C/F)CN)cc4)(CC2)CC3)CO1` (stereo not shown) [Compound 2.153, (E)-4-(4-((2-(aminomethyl)-3-fluoroallyl)oxy)phenyl)-N-(6,6-dimethyltetrahydro-2H-pyran-3-yl)bicyclo[2.2.2]octane-1-carboxamide], not above 0.01 µM. Regarding `NC/C(=C\F)COc1ccc(C23CCC(C(=O)N4CC(OC(F)(F)F)C4)(CC2)CC3)cc1` [Compound 2.94, (E)-(4-(4-((2-(aminomethyl)-3-fluoroallyl)oxy)phenyl)bicyclo [2.2.2]octan-1-yl)(3-(trifluoromethoxy)azetidin-1-yl)methanone], the IC50 is not above 0.01 µM. As for `NC/C(=C\F)COc1ccc(C23CCC(C(=O)N4CCN(CC(F)(F)F)CC4)(CC2)CC3)cc1` [Compound 2.30, (E)-(4-(4-((2-(aminomethyl)-3-fluoroallyl)oxy)phenyl)bicyclo [2.2.2]octan-1-yl)(4-(2,2,2-trifluoroethyl)piperazin-1-yl)methanone], the IC50 is not above 0.01 µM. Under `NC/C(=C\F)COc1ccc(C23CCC(OCC(=O)N4CCOCC4)(CC2)CC3)cc1` [Compound 8.02, (E)-2-((4-(4-((2-(aminomethyl)-3-fluoroallyl)oxy)phenyl)bicyclo [2.2.2]octan-1-yl)oxy)-1-morpholinoethanone] stands not above 0.01 µM. Consider `CO[C@H](C)CNC(=O)C12CCC(c3ccc(OC/C(=C/F)CN)cc3)(CC1)CC2` [Compound 2.123, (R,E)-4-(4-((2-(aminomethyl)-3-3-fluoroallyl)oxy)phenyl)-N-(2-methoxypropyl)bicyclo[2.2.2] octane-1-carboxamide], for which the IC50 was not above 0.01 µM. For the molecule `CO[C@H]1C[C@H](CNC(=O)C23CCC(c4ccc(OC/C(=C/F)CN)cc4)(CC2)CC3)C1` [Compound 2.148, 4-(4-(((E)-2-(aminomethyl)-3-fluoroallyl)oxy)phenyl)-N-(((1s,3s)-3-methoxycyclobutyl)methyl) bicyclo[2.2.2]octane-1-carboxamide], the IC50 was not above 0.01 µM. In the case of `NC/C(=C\F)COc1ccc(C23CCC(C(=O)N4CCCOCC4)(CC2)CC3)cc1` [Compound 2.50, (E)-(4-(4-((2-(aminomethyl)-3-fluoroallyl)oxy)phenyl)bicyclo [2.2.2]octan-1-yl)(1,4-oxazepan-4-yl)methanone], the IC50 is not above 0.01 µM. Consider `CC(C)(O)CCNC(=O)C12CCC(c3ccc(OC/C(=C/F)CN)cc3)(CC1)CC2` [Compound 2.89, (E)-4-(4-((2-(aminomethyl)-3-fluoroallyl)oxy)phenyl)-N-(3-hydroxy-3-methylbutyl)bicyclo[2.2.2] octane-1-carboxamide], for which the IC50 is not above 0.01 µM. Regarding `NC/C(=C\F)COc1ccc(C23CCC(c4nnc(C5CC5)o4)(CC2)CC3)cc1` [Compound 11.01, (E)-2-((4-(4-(5-cyclopropyl-1,3,4-oxadiazol-2-yl)bicyclo[2.2.2]octan-1-yl)phenoxy)methyl)-3-fluoroprop-2-en-1-amine], the half-maximal inhibitory concentration (IC50) is not above 0.01 µM. Under `NC/C(=C\F)COc1ccc(C23CCC(C(=O)NCC4(CO)CCOCC4)(CC2)CC3)cc1` [Compound 2.63, (E)-4-(4-((2-(aminomethyl)-3-fluoroallyl)oxy)phenyl)-N-((4-(hydroxymethyl)tetrahydro-2H-pyran-4-yl)methyl)bicyclo[2.2.2]octane-1-carboxamide] stands not above 0.01 µM.
